Assay results: US11773094B2, “Farnesoid X receptor agonists and uses thereof” (Metacrine, Inc., priority 2018, dated 2023)

These compounds were tested against T1, hFXR (Homo sapiens, UniProt Q96RI1) (assay: In Vitro FXR Assay (TK): TK-ECRE-luc reporter in transfected CV-1 cells). Details: CV-1 cells transfected with hFXR, hRXR, pCMX-YFP, 18 hrs incubation, luminescence.
T1 construct: expressed in transfected cells; host or cells: CV-1 cells
T1 sequence (Q96RI1 1-486): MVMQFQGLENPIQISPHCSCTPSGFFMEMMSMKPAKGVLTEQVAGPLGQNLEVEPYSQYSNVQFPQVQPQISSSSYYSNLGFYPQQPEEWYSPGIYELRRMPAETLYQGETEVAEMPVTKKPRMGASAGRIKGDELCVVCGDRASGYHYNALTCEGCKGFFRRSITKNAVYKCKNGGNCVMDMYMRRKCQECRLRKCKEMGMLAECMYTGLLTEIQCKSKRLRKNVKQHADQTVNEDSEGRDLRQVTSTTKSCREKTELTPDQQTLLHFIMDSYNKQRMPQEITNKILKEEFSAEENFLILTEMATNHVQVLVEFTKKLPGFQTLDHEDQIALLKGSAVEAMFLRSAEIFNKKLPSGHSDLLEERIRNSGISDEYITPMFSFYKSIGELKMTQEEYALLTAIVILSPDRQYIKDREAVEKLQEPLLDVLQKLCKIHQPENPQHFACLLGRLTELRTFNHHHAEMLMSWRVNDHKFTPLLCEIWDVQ
T1 sequence (P19793 1-462 partner): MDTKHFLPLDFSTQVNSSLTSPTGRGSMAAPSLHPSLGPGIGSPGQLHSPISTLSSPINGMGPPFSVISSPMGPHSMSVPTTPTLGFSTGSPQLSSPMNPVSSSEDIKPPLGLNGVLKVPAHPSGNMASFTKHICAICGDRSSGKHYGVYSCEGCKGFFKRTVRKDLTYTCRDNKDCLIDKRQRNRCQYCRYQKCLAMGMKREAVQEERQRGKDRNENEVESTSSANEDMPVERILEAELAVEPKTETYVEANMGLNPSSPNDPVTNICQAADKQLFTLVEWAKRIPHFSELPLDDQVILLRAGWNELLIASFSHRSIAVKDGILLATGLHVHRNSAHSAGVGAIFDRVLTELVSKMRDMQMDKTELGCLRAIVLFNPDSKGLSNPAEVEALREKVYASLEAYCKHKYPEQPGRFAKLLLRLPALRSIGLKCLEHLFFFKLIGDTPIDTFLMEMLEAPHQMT
Type: cell-based
Experimental: Example B-1: In Vitro FXR Assay (TK)
CV-1 cells were seeded at a density of 2,000,000 cells in a T175 flask with DMEM+10% charcoal double-stripped FBS and incubated at 37° C. in 5% CO2 for 18 h (O/N).
After 18 h of incubation, the medium in the T175 flask was changed with fresh DMEM+10% charcoal super-stripped serum. In a polypropylene tube, 2500 μL OptiMEM (Life Technologies, Cat #31985-062) was combined with expression plasmids for hFXR, hRXR, TK-ECRE-luc and pCMX-YFP. The tube was then briefly vortexed and incubated at room temperature for 5 minutes. Transfection reagent (X-tremeGENE HP from Roche, Cat #06 366 236 001) was added to the OptiMEM/plasmid mixture vortexed and incubated at room temperature for 20 minutes. Following incubation, the transfection reagent/DNA mixture complex was added to cells in the T175 flask and the cells were incubated at 37° C. in 5% CO2 for 18 h (O/N).
Compounds were serially diluted in DMSO and added to transfected CV-1 cells. The cells were then incubated for 18 hrs. The next day cells were lysed and examined for luminescence.

Row | SMILES | EC50 [nM]
1 | COc1ccc(C23CCC(CN(c4nccc(-c5cnn(C(C)(C)C)c5)n4)C(=O)[C@H]4CC[C@H](OC(=O)N5CC(O)C5)CC4)(CC2)CC3)cc1C [Compound 3.14, 4-((4-(1-(tert-Butyl)-1H-pyrazol-4-yl)pyrimidin-2-yl)((4-(4-methoxy-3-methylphenyl)bicyclo[2.2.2]octan-1-yl)methyl)carbamoyl) (trans-cyclohexyl) 3-hydroxyazetidine-1-carboxylate] | 10 to 1000
2 | COc1ccc(C23CCC(CN(c4cc(-c5cnc(C(C)(C)C)s5)ccn4)C(=O)[C@H]4CC[C@H](OC(=O)NCCO)CC4)(CC2)CC3)cc1C [Compound 2.06, 4-((4-(2-(tert-Butyl)thiazol-5-yl)pyridin-2-yl)((4-(4-methoxy-3-methylphenyl)bicyclo[2.2.2]octan-1-yl)methyl)carbamoyl)cyclohexyl (2-hydroxyethyl)trans-carbamate] | ≤ 10
3 | COc1ccc([C@H]2CC[C@H](CN(c3cc(-c4coc(C(C)(C)C)n4)ccn3)C(=O)[C@H]3CC[C@H](OC(=O)N4CCC(O)CC4)CC3)CC2)cc1C [Compound 1.06, trans-4-((4-(2-(tert-Butyl)oxazol-4-yl)pyridin-2-yl)(((trans)-4-(4-methoxy-3-methylphenyl)cyclohexyl)methyl)carbamoyl) cyclohexyl 4-hydroxypiperidine-1-carboxylate] | 10 to 1000
4 | COc1ccc(C23CCC(CN(c4cc(-c5cnn(C(C)(C)C)c5)ccn4)C(=O)[C@H]4CC[C@H](OC(=O)NCCC(C)(C)O)CC4)(CC2)CC3)cc1C [Compound 2.32, 4-((4-(1-(tert-Butyl)-1H-pyrazol-4-yl)pyridin-2-yl)((4-(4-methoxy-3-methylphenyl)bicyclo[2.2.2]octan-1-yl)methyl)carbamoyl) (trans-cyclohexyl) (3-hvdroxy-3-methylbutyl)carbamate] | ≤ 10
5 | COc1ccc(C23CCC(CN(c4cc(-c5coc(C(C)(C)C)n5)ccn4)C(=O)[C@H]4CC[C@H](OC(=O)N5CC(S(C)(=O)=O)C5)CC4)(CC2)CC3)cc1C [Compound 2.13, 4-((4-(2-(tert-Butyl)oxazol-4-yl)pyridin-2-yl)((4-(4-methoxy-3-methylphenyl)bicyclo[2.2.2]octan-1-yl)methyl)carbamoyl) (trans-cyclohexyl) 3-(methylsulfonyl)azetidine-1-carboxylate] | ≤ 10
6 | COc1ccc(C23CCC(CN(c4cncc(-c5cnn(C(C)(C)C)c5)c4)C(=O)[C@H]4CC[C@H](OC(=O)N5CC(O)C5)CC4)(CC2)CC3)cc1C [Compound 1.14, 4-((5-(1-(tert-Butyl)-1H-pyrazol-4-yl)pyridin-3-yl)((4-(4-methoxy-3-methylphenyl)bicyclo[2.2.2]octan-1-yl)methyl)carbamoyl) (trans-cyclohexyl) 3-hydroxyazetidine-1-carboxylate] | ≤ 10
7 | COc1ccc([C@H]2CC[C@H](CN(c3cc(-c4cnn(C(C)(C)C)c4)ccn3)C(=O)[C@H]3CC[C@H](OC(=O)NC4CCOCC4)CC3)CC2)cc1C [Compound 1.11, trans-4-((4-(1-(tert-Butyl)-1H-pyrazol-4-yl)pyridin-2-yl)((trans-4-(4-methoxy-3-methylphenyl)cyclohexyl)methyl)carbamoyl) cyclohexyl (tetrahydro-2H-pyran-4-yl)carbamate] | 10 to 1000
8 | COc1ccc(C23CCC(CN(c4cc(-c5cnn(C(C)(C)C)c5)ccn4)C(=O)[C@H]4CC[C@H](OC(=O)N5CC(C)(O)C5)CC4)(CC2)CC3)cc1C [Compound 2.22, 4-((4-(1-(tert-Butyl)-1H-pyrazol-4-yl)pyridin-2-yl)((4-(4-methoxy-3-methylphenyl)bicyclo[2.2.2]octan-1-yl)methyl)carbamoyl) (trans-cyclohexyl) 3-hydroxy-3-methylazetidine-1-carboxylate] | ≤ 10
9 | COc1ccc(C23CCC(CN(c4cc(-c5coc(C(C)(C)C)n5)ccn4)C(=O)[C@H]4CC[C@H](OC(=O)N5CC(CO)C5)CC4)(CC2)CC3)cc1C [Compound 2.15, 4-((4-(2-(tert-Butyl)oxazol-4-yl)pyridin-2-yl)((4-(4-methoxy-3-methylphenyl)bicyclo[2.2.2]octan-1-yl)methyl)carbamoyl) (trans-cyclohexyl) 3-(hydroxymethyl)azetidine-1-carboxylate] | ≤ 10
10 | COc1ccc(C23CCC(CN(c4cc(-c5cnn(C(C)(C)C)c5)ccn4)C(=O)[C@H]4CC[C@H](OC(=O)NC5CC[S+]([O-])CC5)CC4)(CC2)CC3)cc1C (some centres unmarked) [Compound 2.38, (1r,4r)-4-((4-(1-(tert-Butyl)-1H-pyrazol-4-yl)pyridin-2-yl)((4-(4-methoxy-3-methylphenyl)bicyclo[2.2.2]octan-1-yl)methyl)carbamoyl)cyclohexyl (1-oxidotetrahydro-2H-thiopyran-4-yl)carbamate] | 10 to 1000
11 | COc1ccc(C23CCC(CN(c4cc(-c5cnc(C(C)(C)C)s5)ccn4)C(=O)[C@H]4CC[C@H](OC(=O)NC5COC5)CC4)(CC2)CC3)cc1C [Compound 2.04, 4-((4-(2-(tert-Butyl)thiazol-5-yl)pyridin-2-yl)((4-(4-methoxy-3-methylphenyl)bicyclo[2.2.2]octan-1-yl)methyl)carbamoyl) (trans-cyclohexyl) oxetan-3-ylcarbamate] | ≤ 10
12 | COc1ccc(C23CCC(CN(c4cc(-c5cnc(C(C)(C)C)s5)ccn4)C(=O)[C@H]4CC[C@H](OC(=O)N5CC[C@H]5CO)CC4)(CC2)CC3)cc1C [Compound 2.10, (S)-4-((4-(2-(tert-Butyl)thiazol-5-yl)pyridin-2-yl)((4-(4-methoxy-3-methylphenyl)bicyclo[2.2.2]octan-1-yl)methyl)carbamoyl)cyclohexyl 2-(hydroxymethyl)azetidine- trans-1-carboxylate] | ≤ 10

Second part, the compound after the results:

Row | EC50 [nM] | SMILES
13 | ≤ 10 | COc1ccc(C23CCC(CN(c4cc(-c5coc(C(C)(C)C)n5)ccn4)C(=O)[C@H]4CC[C@H](OC(=O)NC5CCOCC5)CC4)(CC2)CC3)cc1C [Compound 3.11, 4-((4-(2-(tert-Butyl)oxazol-4-yl)pyridin-2-yl)((4-(4-methoxy-3-methylphenyl)bicyclo[2.2.2]octan-1-yl)methyl)carbamoyl) cyclohexyl (tetrahydro-2H-pyran-4-yl)trans-carbamate]
14 | ≤ 10 | COc1ccc(C23CCC(CN(c4cc(-c5cnc(C(C)(C)C)s5)ccn4)C(=O)[C@H]4CC[C@H](OC(=O)N5CC(S(C)(=O)=O)C5)CC4)(CC2)CC3)cc1C [Compound 2.03, 4-((4-(2-(tert-Butyl)thiazol-5-yl)pyridin-2-yl)((4-(4-methoxy-3-methylphenyl)bicyclo[2.2.2]octan-1-yl)methyl)carbamoyl) (trans-cyclohexyl) 3-(methylsulfonyl)azetidine-1-carboxylate]
15 | ≤ 10 | COc1ccc(C23CCC(CN(c4cc(-c5cnn(C(C)(C)C)c5)c(F)cn4)C(=O)[C@H]4CC[C@H](OC(=O)N5CC(O)C5)CC4)(CC2)CC3)cc1C [Compound 1.12, 4-((4-(1-(tert-Butyl)-1H-pyrazol-4-yl)-5-fluoropyridin-2-yl)((4-(4-methoxy-3-methylphenyl)bicyclo[2.2.2]octan-1-yl)methyl)carbamoyl) (trans-cyclohexyl) 3-hydroxyazetidine-1-carboxylate]
16 | ≤ 10 | COc1ccc(C23CCC(CN(c4cc(-c5coc(C(C)(C)C)n5)ccn4)C(=O)[C@H]4CC[C@H](OC(=O)N5CC[C@H]5CO)CC4)(CC2)CC3)cc1C [Compound 2.11, (S)-4-((4-(2-(tert-Butyl)oxazol-4-yl)pyridin-2-yl)((4-(4-methoxy-3-methylphenyl)bicyclo[2.2.2]octan-1-yl)methyl)carbamoyl)cyclohexyl 2-(hydroxymethyl)azetidine- trans-1-carboxylate]
17 | ≤ 10 | COc1ccc(C23CCC(CN(c4cc(-c5coc(C(C)(C)C)n5)ccn4)C(=O)[C@H]4CC[C@H](OC(=O)N5CC(O)C5)CC4)(CC2)CC3)cc1C [Compound 3.10, 4-((4-(2-(tert-Butyl)oxazol-4-yl)pyridin-2-yl)((4-(4-methoxy-3-methylphenyl)bicyclo[2.2.2]octan-1-yl)methyl)carbamoyl)cyclohexyl 3-hydroxyazetidine-trans-1-carboxylate]
